Read-outs that look alike come from different tables or passages of the source.
Tests used:
[1] = In vitro release, USP XXI "paddle" apparatus, distilled water at 37° C.; format: physicochemical
Experimental: "In vitro" experiments were carried out both on (i) the uncoated solid matrix-type reservoirs, and (ii) the finished devices; i.e., on the reservoirs coated both with the release rate-controlling membrane and with the protective membrane loaded with a portion of the active principle which is desired to be immediately available.
To carry out such experiments, a USP XXI "paddle" apparatus was used with distilled water at 37° C. as the dissolution medium.

[2] = Ex. 1 device, healthy volunteer
Experimental: A healthy volunteer was administered the same device. The following plasma levels of active principle were detected.

[3] = In vitro release, USP XXI "paddle" apparatus, distilled water at 37° C.; format: physicochemical; settings: Ex. 2, coated reservoir, no drug in protective membrane
[4] = In vitro model, diltiazem release (Example 7; apparatus not restated); format: physicochemical
[5] = Ex. 1, coated reservoir, drug-loaded protective membrane, 1 h
[6] = Ex. 1, coated reservoir, drug-loaded protective membrane, 2 h
[7] = Ex. 1, coated reservoir, drug-loaded protective membrane, 3 h
[8] = Ex. 1, coated reservoir, drug-loaded protective membrane, 4 h
[9] = Ex. 1, coated reservoir, drug-loaded protective membrane, 5 h
[10] = Ex. 1, coated reservoir, drug-loaded protective membrane, 6 h
[11] = Ex. 1, uncoated solid matrix-type reservoir (100 mg), 30 min
[12] = Ex. 1, uncoated solid matrix-type reservoir (100 mg), 60 min
[13] = Ex. 1, uncoated solid matrix-type reservoir (100 mg), 90 min
[14] = Ex. 1, uncoated solid matrix-type reservoir (100 mg), 120 min

In the case of `COc1ccc2c(c1)c(CC(=O)O)c(C)n2C(=O)c1ccc(Cl)cc1.NCCCC[C@H](N)C(=O)O` [Indomethacin lysinate, Lysine salt of indomethacin], the “Release rate in vitro” value ([1]; Ex. 1, after release rate-controlling membrane is applied) was “substantially constant through the sixth hour”, the Rate [1, 5] was 14 mg/h and the Total drug released [1, 5] was 14 mg. It also gave a Rate [1, 6] of 12.5 mg/h, a Total drug released [1, 6] of 25 mg and a Rate [1, 7] of 13.3 mg/h. For the same compound, the Total drug released [1, 7] was 40 mg, the Rate [1, 8] was 14.25 mg/h and the Total drug released [1, 8] was 57 mg. For the same compound, the Rate [1, 9] was 15.4 mg/h, the Total drug released [1, 9] was 77 mg and the Rate [1, 10] was 15.5 mg/h. The Total drug released [1, 10] was 93 mg, the “Time in which drug is wholly released” value ([1]; Ex. 1, uncoated solid matrix-type reservoir) was “about 5 hours” and the Rate [1, 11] was 40 mg/h. For the same compound, the Total drug released [1, 11] was 20 mg, the Rate [1, 12] was 54 mg/h and the Total drug released [1, 12] was 54 mg. The Rate [1, 13] was 43 mg/h, the Total drug released [1, 13] was 65 mg and the Rate [1, 14] was 37.5 mg/h. The Total drug released [1, 14] was 75 mg, the “Plasma level of active principle” value ([2]; 1 h) was 1600 ng/mL and the “Plasma level of active principle” value ([2]; 2 h) was 2500 ng/mL. For the same compound, the “Plasma level of active principle” value ([2]; 5 h) was 3200 ng/mL, the “Plasma level of active principle” value ([2]; 8 h) was 1500 ng/mL and the “Plasma level of active principle” value ([2]; 12 h) was 1100 ng/mL. The “Plasma level of active principle” value ([2]; 24 h) was 800 ng/mL.
Work on methisoprinol yielded a Total drug released ([3]; 1 h) of 53 mg, a Total drug released ([3]; 5 h) of 273 mg and a Total drug released ([1]; Ex. 2, coated reservoir, no drug in protective membrane, 2 h) of 115 mg. For the same compound, the Total drug released ([1]; Ex. 2, coated reservoir, no drug in protective membrane, 3 h) was 173 mg, the Total drug released ([1]; Ex. 2, coated reservoir, no drug in protective membrane, 4 h) was 223 mg and the Total drug released ([1]; Ex. 2, coated reservoir, no drug in protective membrane, 6 h) was 315 mg. The Total drug released ([1]; Ex. 2, coated reservoir, no drug in protective membrane, 7 h) was 357 mg, the Total drug released ([1]; Ex. 2, uncoated solid matrix-type reservoir (500 mg), 30 min) was 225 mg and the Total drug released ([1]; Ex. 2, uncoated solid matrix-type reservoir (500 mg), 60 min) was 312 mg. It also gave a Total drug released ([1]; Ex. 2, uncoated solid matrix-type reservoir (500 mg), 90 min) of 365 mg and a Total drug released ([1]; Ex. 2, uncoated solid matrix-type reservoir (500 mg), 120 min) of 405 mg.
Compound `CC(=O)O[C@H](CC(=O)[O-])C[N+](C)(C)C` [Acetyl L-carnitine, acetyl L-carnitine] has a Total drug released ([1]; Ex. 3, coated reservoir, no drug in protective membrane, 1 h) of 60 mg, a Total drug released ([1]; Ex. 3, coated reservoir, no drug in protective membrane, 2 h) of 135 mg and a Total drug released ([1]; Ex. 3, coated reservoir, no drug in protective membrane, 3 h) of 210 mg. It also gave a Total drug released ([1]; Ex. 3, coated reservoir, no drug in protective membrane, 4 h) of 280 mg, a Total drug released ([1]; Ex. 3, coated reservoir, no drug in protective membrane, 5 h) of 348 mg and a Total drug released ([1]; Ex. 3, coated reservoir, no drug in protective membrane, 6 h) of 411 mg. It also gave a Total drug released ([1]; Ex. 3, uncoated solid matrix-type reservoir (500 mg), 30 min) of 158 mg, a Total drug released ([1]; Ex. 3, uncoated solid matrix-type reservoir (500 mg), 60 min) of 242 mg and a Total drug released ([1]; Ex. 3, uncoated solid matrix-type reservoir (500 mg), 90 min) of 335 mg. The Total drug released ([1]; Ex. 3, uncoated solid matrix-type reservoir (500 mg), 120 min) was 395 mg.
`COc1ccc2c(C(=O)c3ccc(Cl)cc3)c(C)n(CC(=O)O)c2c1.NCCCCC(N)C(=O)O` [Clometacin lysinate, clometacin lysinate] showed a Total drug released ([1]; Ex. 4, coated reservoir, drug-loaded protective membrane, 1 h) of 15 mg, a Total drug released ([1]; Ex. 4, coated reservoir, drug-loaded protective membrane, 2 h) of 40 mg and a Total drug released ([1]; Ex. 4, coated reservoir, drug-loaded protective membrane, 3 h) of 61 mg. The Total drug released ([1]; Ex. 4, coated reservoir, drug-loaded protective membrane, 4 h) was 78 mg, the Total drug released ([1]; Ex. 4, coated reservoir, drug-loaded protective membrane, 5 h) was 95 mg and the Total drug released ([1]; Ex. 4, coated reservoir, drug-loaded protective membrane, 6 h) was 116 mg. The Total drug released ([1]; Ex. 4, uncoated solid matrix-type reservoir (150 mg), 30 min) was 63 mg, the Total drug released ([1]; Ex. 4, uncoated solid matrix-type reservoir (150 mg), 60 min) was 91 mg and the Total drug released ([1]; Ex. 4, uncoated solid matrix-type reservoir (150 mg), 90 min) was 105 mg. For the same compound, the Total drug released ([1]; Ex. 4, uncoated solid matrix-type reservoir (150 mg), 120 min) was 124 mg.
`CCC(COC(=O)c1cc(OC)c(OC)c(OC)c1)(c1ccccc1)N(C)C` (stereo not shown) [Trimebutine, trimebutine] gave a Total drug released ([1]; Ex. 5, coated reservoir, drug-loaded protective membrane, 1 h) of 18 mg, a Total drug released ([1]; Ex. 5, coated reservoir, drug-loaded protective membrane, 2 h) of 30 mg and a Total drug released ([1]; Ex. 5, coated reservoir, drug-loaded protective membrane, 3 h) of 50 mg. It also gave a Total drug released ([1]; Ex. 5, coated reservoir, drug-loaded protective membrane, 4 h) of 67 mg, a Total drug released ([1]; Ex. 5, coated reservoir, drug-loaded protective membrane, 5 h) of 90 mg and a Total drug released ([1]; Ex. 5, coated reservoir, drug-loaded protective membrane, 6 h) of 103 mg. The Total drug released ([1]; Ex. 5, uncoated solid matrix-type reservoir (140 mg), 30 min) was 20 mg, the Total drug released ([1]; Ex. 5, uncoated solid matrix-type reservoir (140 mg), 60 min) was 64 mg and the Total drug released ([1]; Ex. 5, uncoated solid matrix-type reservoir (140 mg), 90 min) was 80 mg. It also gave a Total drug released ([1]; Ex. 5, uncoated solid matrix-type reservoir (140 mg), 120 min) of 105 mg, a Total drug released ([1]; Ex. 6, coated reservoir, protective membrane loaded with 15 mg drug, 0.5 h) of 22.5 mg and a Total drug released ([1]; Ex. 6, coated reservoir, protective membrane loaded with 15 mg drug, 1 h) of 45.0 mg. It also gave a Total drug released ([1]; Ex. 6, coated reservoir, protective membrane loaded with 15 mg drug, 2 h) of 82.5 mg, a Total drug released ([1]; Ex. 6, coated reservoir, protective membrane loaded with 15 mg drug, 3 h) of 105.0 mg and a Total drug released ([1]; Ex. 6, coated reservoir, protective membrane loaded with 15 mg drug, 4 h) of 120.0 mg. It also gave a Total drug released ([1]; Ex. 6, coated reservoir, protective membrane loaded with 15 mg drug, 5 h) of 127.5 mg, a Total drug released ([1]; Ex. 6, uncoated solid matrix-type reservoir (135 mg), 20 min) of 47 mg and a Total drug released ([1]; Ex. 6, uncoated solid matrix-type reservoir (135 mg), 40 min) of 64.8 mg. It also gave a Total drug released ([1]; Ex. 6, uncoated solid matrix-type reservoir (135 mg), 60 min) of 77.0 mg, a Total drug released ([1]; Ex. 6, uncoated solid matrix-type reservoir (135 mg), 80 min) of 87.8 mg and a Total drug released ([1]; Ex. 6, uncoated solid matrix-type reservoir (135 mg), 100 min) of 94.5 mg. The Total drug released ([1]; Ex. 6, uncoated solid matrix-type reservoir (135 mg), 180 min) was 115 mg.
`COc1ccc([C@@H]2Sc3ccccc3N(CCN(C)C)C(=O)[C@@H]2OC(C)=O)cc1.Cl` [Diltiazem, diltiazem HCl] gave a Total drug released ([4]; Ex. 7, coated reservoir, no drug in protective membrane, 0.5 h) of 14.4 mg, a Total drug released ([4]; Ex. 7, coated reservoir, no drug in protective membrane, 1 h) of 29.5 mg and a Total drug released ([4]; Ex. 7, coated reservoir, no drug in protective membrane, 2 h) of 67.6 mg. It also gave a Total drug released ([4]; Ex. 7, coated reservoir, no drug in protective membrane, 3 h) of 89.9 mg, a Total drug released ([4]; Ex. 7, coated reservoir, no drug in protective membrane, 4 h) of 102.3 mg and a Total drug released ([4]; Ex. 7, uncoated solid matrix-type reservoir (120 mg), 15 min) of 40.0 mg. The Total drug released ([4]; Ex. 7, uncoated solid matrix-type reservoir (120 mg), 30 min) was 57.6 mg, the Total drug released ([4]; Ex. 7, uncoated solid matrix-type reservoir (120 mg), 45 min) was 69.6 mg and the Total drug released ([4]; Ex. 7, uncoated solid matrix-type reservoir (120 mg), 60 min) was 80.4 mg. It also gave a Total drug released ([4]; Ex. 7, uncoated solid matrix-type reservoir (120 mg), 75 min) of 85.2 mg.
